Assay results reported in patent US20220305012A1, “L[…] TREATING SLEEP ISSUES” (EISAI R&D MANAGEMENT CO., LTD., priority 2019, published 2022).

How the values were obtained:
[1] = tested on: Subjects Having Insomnia Disorder; experiment: Example 2: Insomnia Severity Index Daytime Functioning (Items 4-7); assay type: in vivo, human; details: for Insomnia Severity Daytime Functioning (Items 4-7), Change from Study Baseline, Mean (SD) / Insomnia Severity Daytime Functioning (Items 4-7), Change from Study Baseline, Median / Insomnia Severity Daytime Functioning (Items 4-7), Mean (SD) / Insomnia Severity Daytime Functioning (Items 4-7), Median: Day 31
Description: (§1) As used herein, the term “Insomnia Severity Index”, abbreviated as “ISI”, is an index calculated using a 7-item, self-report questionnaire assessing the nature, severity, and impact of insomnia (see Bastien, C. H., et al. “Validation of the Insomnia Severity Index as an outcome measure for insomnia research.” Sleep Med. 2001; 2(4): 297-307). The questionnaire evaluates: (1) severity of sleep onset; (2) sleep maintenance; (3) early morning awakening problems; (4) sleep dissatisfaction; (5) interference caused by sleep difficulties with daytime functioning; (6) noticeability of sleep problems by others; and (7) distress caused by the sleep difficulties. A 5-point scale is used to rate each item (0=no problem to 4=very severe problem) yielding a total score from 0 to 28. Total ISI score (items (1)-(7)) and daytime functioning (items (4)-(7)) are analyzed separately.
(§2) On day 1 of the baseline period, subjects were admitted to the clinic and ISI, FSS, and EQ-5D-3L were administered. Blood and urine samples were collected for routine safety assessments, an ECG was performed, and vital signs and weight were assessed. The eC-SSRS was administered. Subjects who completed the baseline period and continued to meet the eligibility criteria were randomized and began the randomization phase.
(§3) On the evening of Day 30, subjects returned to the clinic. A pre-dose blood sample was collected and study drug was again administered within 5 minutes of the subject's mean habitual bedtime. A polysomnogram recording was initiated. The following morning (Day 31), postural stability and cognitive performance were assessed and a blood sample was obtained. The ISI, FSS, EQ-5D-3L and PGI-Insomnia were administered. Blood and urine samples were collected for routine safety assessment. An electrocardiogram was performed, and vital signs and weight were assessed. The eC-SSRS was then administered to the subject. At 1.5 hours after waketime, subjects rated their morning sleepiness level.

[2] = tested on: Subjects Having Insomnia Disorder; experiment: Example 2: auditory awakening threshold
[3] = tested on: Subjects Having Insomnia Disorder; experiment: Example 2: subjective sleep onset latency (sSOL), sleep diary; assay type: in vivo, human
Description: As used herein, the term “subjective sleep onset latency”, abbreviated as “sSOL”, means the estimated number of minutes from the time that the subject attempted to sleep until sleep onset. In some embodiments, sSOL is derived from data entered in a subject's Sleep Diary.
(§4) In some embodiments, sleep diaries were used to assess sleep parameters reported by subjects (i.e., subjective assessments) including subjective sleep onset latency (sSOL), subjective sleep efficiency (sSE), subjective WASO (sWASO), and subjective total sleep time (sTST). Subjects were instructed to complete the Sleep Diary developed based on the consensus Sleep Diary as described in Carney et al., “The consensus sleep diary: standardizing prospective sleep self-monitoring,” Sleep 2012; 35(2):287-302. In some embodiments, the Sleep Diary was used to assess the subject's global perception of quality of sleep on the previous night with the following question: “How would you rate the quality of your sleep last night?” Subjects rated the quality of their sleep on a scale from 1 to 9, with 1 being extremely poor and 9 being extremely good. In some embodiments, the Sleep Diary was used to assess subjective ratings of morning sleepiness with the following question: “How alert/sleepy do you feel this morning?” Subjects rated their sleepiness/alertness level on a Likert scale from 1 to 9, with 1 being extremely sleepy and 9 being extremely alert.
sSOL—subjective sleep onset latency: estimated minutes from the time that the subject attempted to sleep until sleep onset.
(§5) The treatment period lasted for 31 days. Subjects were randomized in a double-blind manner and received placebo, a tablet containing 5 mg of lemborexant, a tablet containing 10 mg of lemborexant, or a tablet containing 6.25 mg of zolpidem ER.
(§6) Once home, the subject ingested study drug each night prior to bedtime and completed their sleep diary within 1 hour of waketime.

[4] = tested on: Subjects Having Insomnia Disorder; experiment: Example 2: Insomnia Severity Index Total Score (Items 1-7); assay type: in vivo, human; details: for Insomnia Severity Total Score (Items 1-7), Change from Study Baseline, Mean (SD) / Insomnia Severity Total Score (Items 1-7), Change from Study Baseline, Median / Insomnia Severity Total Score (Items 1-7), Mean (SD) / Insomnia Severity Total Score (Items 1-7), Median: Day 31
Description: as §1, §2, §3

[5] = tested on: Subjects Having Insomnia Disorder; experiment: Example 2: subjective sleep efficiency (sSE), sleep diary; assay type: in vivo, human
Description: As used herein, the term “subjective sleep efficiency”, abbreviated as “sSE”, means the proportion of sTST per subjective time spent in bed, calculated as the interval from the time the subject reports attempting to sleep until the time the subject stopped trying to sleep for the night (operationalized as the time the subject got out of bed for the day), and time spent asleep derived from subjective time spent in bed minus sWASO. As used herein, an “improvement of sleep efficiency in Subjective Sleep Efficiency (sSE)” means an increase in sleep efficiency in Subjective Sleep Efficiency (sSE).
as §4
sSE—subjective sleep efficiency: proportion of sTST per subjective time spent in bed, calculated as the interval from the time the subject reports attempting to sleep until the time the subject stopped trying to sleep for the night (operationalized as the time the subject got out of bed for the day), and time spent asleep derived from subjective time in bed minus sWASO.
as §5, §6

[6] = tested on: Subjects Having Insomnia Disorder; experiment: Example 2: subjective total sleep time (sTST), sleep diary; assay type: in vivo, human
Description: As used herein, the term “subjective total sleep time”, abbreviated as “sTST”, means the derived minutes of sleep from sleep onset until the time the subject stopped trying to sleep for the night. In some embodiments, sTST is derived from data entered in a subject's Sleep Diary.
as §4
sTST—subjective total sleep time: derived minutes of sleep from sleep onset until the time the subject stopped trying to sleep for the night.
as §5, §6

[7] = 5 mg, First 7 Nights of Treatment
[8] = 5 mg, Last 7 Nights of Treatment
[9] = 10 mg, First 7 Nights of Treatment
[10] = 10 mg, Last 7 Nights of Treatment
[11] = First 7 Nights of Treatment, Lemborexant 5 mg
[12] = First 7 Nights of Treatment, Lemborexant 10 mg
[13] = Last 7 Nights of Treatment, Lemborexant 5 mg
[14] = Last 7 Nights of Treatment, Lemborexant 10 mg

Cc1ncc(OC[C@@]2(c3cccc(F)c3)C[C@H]2C(=O)Nc2ccc(F)cn2)c(C)n1 [Lemborexant, (1R,2S)-2-(((2,4-dimethylpyrimidin-5-yl)oxy)methyl)-2-(3-fluorophenyl)-N-(5-fluoropyridin-2-yl)cyclopropanecarboxamide]
Insomnia Severity Daytime Functioning (Items 4-7), Change from Study Baseline, Mean (SD) ([1]; Lemborexant 5 mg): −4.83 (3.593)
Insomnia Severity Daytime Functioning (Items 4-7), Change from Study Baseline, Median ([1]; Lemborexant 5 mg): −4.00
Insomnia Severity Daytime Functioning (Items 4-7), Mean (SD) ([1]; Lemborexant 5 mg): 6.12 (3.488)
Insomnia Severity Daytime Functioning (Items 4-7), Median ([1]; Lemborexant 5 mg): 6.00
Insomnia Severity Daytime Functioning (Items 4-7), Change from Study Baseline, Mean (SD) ([1]; Lemborexant 10 mg): −4.77 (3.735)
Insomnia Severity Daytime Functioning (Items 4-7), Change from Study Baseline, Median ([1]; Lemborexant 10 mg): −4.00
Insomnia Severity Daytime Functioning (Items 4-7), Mean (SD) ([1]; Lemborexant 10 mg): 6.10 (3.617)
Insomnia Severity Daytime Functioning (Items 4-7), Median ([1]; Lemborexant 10 mg): 6.00
mean insomnia severity index daytime score ([1]; lemborexant treatment groups, relative to baseline and the placebo treatment group (Table 23)): reduced
Auditory Awakening Threshold, LSM - Difference vs. Placebo ([2]; Lemborexant 5 mg): 1.7
Auditory Awakening Threshold, Mean (SD) ([2]; Lemborexant 5 mg): 51.8
Auditory Awakening Threshold, Median ([2]; Lemborexant 5 mg): 50.0
Auditory Awakening Threshold, LSM - Difference vs. Placebo ([2]; Lemborexant 10 mg): −0.9
Auditory Awakening Threshold, Mean (SD) ([2]; Lemborexant 10 mg): 51.7
Auditory Awakening Threshold, Median ([2]; Lemborexant 10 mg): 52.5
ability to be awakened by an external stimulus (auditory awakening threshold) ([2]; Table 27): did not interfere with a subject's ability to be awakened by an external stimulus
sSOL Change from Study Baseline, Mean (SD) [3, 7]: −22.54 (32.812) minutes
sSOL Change from Study Baseline, Median [3, 7]: -14.86 min
sSOL, Mean (SD) [3, 7]: 42.39 (28.075) minutes
sSOL, Median [3, 7]: 29.64 min
sSOL Change from Study Baseline, Mean (SD) [3, 8]: −25.20 (34.854) minutes
sSOL Change from Study Baseline, Median [3, 8]: -18.54 min
sSOL, Mean (SD) [3, 8]: 38.80 (28.028) minutes
sSOL, Median [3, 8]: 30.36 min
sSOL, Mean (SD) ([3]; 5 mg, Study Baseline): 65.79 (43.530) minutes
sSOL, Median ([3]; 5 mg, Study Baseline): 58.57 min
sSOL Change from Study Baseline, Mean (SD) [3, 9]: −21.88 (29.269) minutes
sSOL Change from Study Baseline, Median [3, 9]: -15.00 min
sSOL, Mean (SD) [3, 9]: 38.64 (32.092) minutes
sSOL Change from Study Baseline, Mean (SD) [3, 10]: −24.79 (34.068) minutes
sSOL Change from Study Baseline, Median [3, 10]: -17.14 min
sSOL, Mean (SD) [3, 10]: 36.51 (31.059) minutes
sSOL, Median [3, 10]: 27.50 min
sSOL, Mean (SD) ([3]; 10 mg, Study Baseline): 60.88 (42.514) minutes
sSOL, Median ([3]; 10 mg, Study Baseline): 53.57 min
mean subjective sleep onset latency ([3]; all lemborexant treatment groups, relative to baseline, placebo and zolpidem treatment groups (Table 18)): reduced
Insomnia Severity Total Score (Items 1-7), Change from Study Baseline, Mean (SD) ([4]; Lemborexant 5 mg): −7.75 (5.474)
Insomnia Severity Total Score (Items 1-7), Change from Study Baseline, Median ([4]; Lemborexant 5 mg): −7.00
Insomnia Severity Total Score (Items 1-7), Mean (SD) ([4]; Lemborexant 5 mg): 11.24 (5.387)
Insomnia Severity Total Score (Items 1-7), Median ([4]; Lemborexant 5 mg): 11.00
Insomnia Severity Total Score (Items 1-7), Change from Study Baseline, Mean (SD) ([4]; Lemborexant 10 mg): −7.92 (5.894)
Insomnia Severity Total Score (Items 1-7), Change from Study Baseline, Median ([4]; Lemborexant 10 mg): −7.00
Insomnia Severity Total Score (Items 1-7), Mean (SD) ([4]; Lemborexant 10 mg): 11.11 (5.639)
Insomnia Severity Total Score (Items 1-7), Median ([4]; Lemborexant 10 mg): 11.00
mean insomnia severity index total score ([4]; lemborexant treatment groups, relative to baseline and the placebo treatment group (Table 22)): reduced
mean subjective sleep efficiency ([5]; 10 mg, relative to baseline, placebo and zolpidem treatment groups (Table 19)): increased
Subjective Sleep Efficiency, Change from Study Baseline, Mean (SD) [5, 11]: 10.56 (12.296)
Subjective Sleep Efficiency, Mean (SD) [5, 11]: 65.96 (18.203)
Subjective Sleep Efficiency, Model-adjusted change from baseline [5, 11]: 10.74
Subjective Sleep Efficiency, Change from Study Baseline, Mean (SD) [5, 12]: 13.97 (14.188)
Subjective Sleep Efficiency, Mean (SD) [5, 12]: 68.10 (18.356)
Subjective Sleep Efficiency, Model-adjusted change from baseline [5, 12]: 13.81
Subjective Sleep Efficiency, Change from Study Baseline, Mean (SD) [5, 13]: 12.92 (13.884)
Subjective Sleep Efficiency, Mean (SD) [5, 13]: 68.19 (19.251)
Subjective Sleep Efficiency, Model-adjusted change from baseline [5, 13]: 13.29
Subjective Sleep Efficiency, Change from Study Baseline, Mean (SD) [5, 14]: 16.12 (16.3000)
Subjective Sleep Efficiency, Mean (SD) [5, 14]: 69.92 (19.098)
Subjective Sleep Efficiency, Model-adjusted change from baseline [5, 14]: 15.87
mean subjective total sleep time ([6]; 10 mg, relative to baseline, placebo and zolpidem treatment groups (Table 21)): increased
Subjective Total Sleep Time, Change from Study Baseline, Mean (SD) [6, 11]: 50.30 (60.065)
Subjective Total Sleep Time, Mean (SD) [6, 11]: 322.66 (89.706)
Subjective Total Sleep Time, Model-adjusted change from baseline [6, 11]: 51.14
Subjective Total Sleep Time, Change from Study Baseline, Mean (SD) [6, 12]: 67.80 (71.134)
Subjective Total Sleep Time, Mean (SD) [6, 12]: 332.92 (91.538)
Subjective Total Sleep Time, Model-adjusted change from baseline [6, 12]: 66.59
Subjective Total Sleep Time, Change from Study Baseline, Mean (SD) [6, 13]: 62.41 (68.555)
Subjective Total Sleep Time, Mean (SD) [6, 13]: 334.22 (94.339)
Subjective Total Sleep Time, Model-adjusted change from baseline [6, 13]: 64.22
Subjective Total Sleep Time, Change from Study Baseline, Mean (SD) [6, 14]: 79.95 (81.211)
Subjective Total Sleep Time, Mean (SD) [6, 14]: 343.68 (95.785)
Subjective Total Sleep Time, Model-adjusted change from baseline [6, 14]: 78.47
